Measurements reported in PMC8429736, “Pharmacological characterization of mutant huntingtin aggregate-directed PET imaging tracer candidates” (Scientific Reports, 2021).

Legend:
[1] = tested on: beta amyloid/tau aggregates in post-mortem AD patient brain homogenates; test: ADbh RBA competition format; assay type: binding, human; settings: radioligand 4; compound 1 µM
Procedure: For RBA in vitro binding assays, brain tissue was sliced (50 µm), weighed and homogenized in PBS (Gibco, 14190-94), 0.1% BSA with a glass pestle (10 strokes) at a concentration of 12–15 mg wet tissue per mL buffer. The crude homogenate concentration was then adjusted to 10 mg/mL (wet tissue) and stored as single-use aliquots at -80 °C.
RBA experiments using Alzheimer’s disease brain homogenates (ADbh RBA) followed the same assay principle as the RBA with recombinant HTT protein, using 0.68 mg/mL homogenate (100 µg per well with 150 µL assay volume) in assay buffer PBS, 0.01% Pluronic F127 (Sigma. P2443) and 1% DMSO after compound addition. […] Incubation at room temperature was conducted for 20 min after compound addition and for 5 h after radioligand addition. For the competition format, raw cpm were normalized towards assay controls as before, to obtain inhibition between 0 and 100%. For saturation binding, raw cpm were converted into nM as before, using a calibration line of total added radioligand, and normalized to mg of added homogenate to finally obtain pmol/mg.

[2] = ARG, human post-mortem CTRL frontal cortex sections; assay type: binding
Q46 aggregates = test: RBA competition binding against tritiated 3, Q46 aggregates; settings: 0.3 nM tritiated 3 as radioligand; 1 µM aggregates; mean ± SD
Procedure: For the competition assay format, Q46 or Exon1-Q46 aggregates at 1 µM (sample volume 150 µL) were pre-incubated in a 96-well round bottom plate (Corning, #3365) for 20 min with test compounds at room temperature (assay buffer 50 mM Tris–HCl pH 8.0, 150 mM NaCl). […] Radioligand 3 at 0.3 nM was added and incubated for 1 h at 37 °C.
Samples were then transferred onto a 96-well GF/B filter plate (Perkin Elmer, #6005177) using a Filtermate Harvester, aspirated by vacuum and wells washed twice with 200 µL PBS. After drying the filter plates for 1 h at 55 °C the back of the plate was sealed with aluminum cover and 30 µL of scintillation fluid (Perkin Elmer, #6013641) per well was added. The tops of the plates were sealed, and the plates were incubated for 15 min in the dark and counted in a TopCount or MicroBeta2 reader (both Perkin Elmer).
Raw sample data collected as counts per minute (cpm) were normalized towards assay controls: 0% inhibition = radioligand + protein + vehicle, 100% inhibition = radioligand + protein + 1 µM unlabeled ligand. A 4-parameter […] fit was applied to generate IC50 values.

In the case of `COc1ccc(COc2ccc3oc(-c4ccc(=O)n(C)n4)nc3c2)nc1` [CHDI-180], the “inhibition at 1 µM” value [1] is reported as ~ 50%, the “NSB in CTRL brain sections” value ([2]; 1 nM radioligand plus cold compound) is reported as “below 0.5 fmol/mg tissue” and the “binding to frontal cortical sections, CTRL tissue” value ([2]; 1 nM radioligand, gray matter) is reported as 0.8 ± 0.3 fmol/mg tissue. For the same compound, the IC50 (Q46 aggregates) was 1.2 ± 0.5 nM.
